# Results from patent US20100004250A1, “PTERIDINE DERIVATIVES AS POLO-LIKE KINASE INHIBITORS USEFUL IN THE TREATMENT OF CANCER” (CHROMA THERAPEUTICS LTD., priority 2006, published 2010).
# pIC50: −log10 of the molar value.
# How the values were obtained:
# PLK1 = target: T1, PLK1 (Homo sapiens, UniProt P53350); assay: PLK1 enzyme assay (Z'-LYTE, Invitrogen); format: biochemical; settings: ATP at or close to Km, 60 minute kinase reaction; read-out: Inhibitor Activity vs PLK1
# T1 construct: purchased Invitrogen (Paisley, UK), assay service
# T1 sequence (P53350 whole entry): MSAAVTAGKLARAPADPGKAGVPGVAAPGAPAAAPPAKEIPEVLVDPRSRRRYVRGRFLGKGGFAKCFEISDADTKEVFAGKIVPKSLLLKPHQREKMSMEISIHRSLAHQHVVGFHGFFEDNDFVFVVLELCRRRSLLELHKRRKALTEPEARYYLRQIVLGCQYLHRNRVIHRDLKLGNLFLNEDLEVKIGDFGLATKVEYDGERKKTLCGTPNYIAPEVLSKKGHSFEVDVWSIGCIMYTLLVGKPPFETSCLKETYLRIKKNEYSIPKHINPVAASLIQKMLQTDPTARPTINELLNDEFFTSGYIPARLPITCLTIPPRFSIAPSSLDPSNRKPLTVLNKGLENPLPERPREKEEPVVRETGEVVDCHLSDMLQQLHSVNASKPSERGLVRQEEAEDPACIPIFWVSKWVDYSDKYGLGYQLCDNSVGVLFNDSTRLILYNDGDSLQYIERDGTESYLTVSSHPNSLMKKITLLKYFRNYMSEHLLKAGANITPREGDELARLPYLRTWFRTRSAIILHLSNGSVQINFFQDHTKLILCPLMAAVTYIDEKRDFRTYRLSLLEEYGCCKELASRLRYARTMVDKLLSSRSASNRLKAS
# Protocol: The ability of compounds to inhibit PLK-1 kinase activity was measured in an assay performed by Invitrogen (Paisley, UK). The Z′-LYTE™ biochemical assay employs a fluorescence-based, coupled-enzyme format and is based on the differential sensitivity of phosphorylated and non-phosphorylated peptides to proteolytic cleavage. The peptide substrate is labelled with two fluorophores—one at each end—that make up a FRET pair. In the primary reaction, the kinase transfers the gamma-phosphate of ATP to a single serine or threonine residue in a synthetic FRET-peptide. In the secondary reaction, a site-specific protease recognizes and cleaves non-phosphorylated FRET-peptides. Phosphorylation of FRET-peptides suppresses cleavage by the Development Reagent. Cleavage disrupts FRET between the donor (i.e., coumarin) and acceptor (i.e., fluorescein) fluorophores on the FRET-peptide, whereas uncleaved, phosphorylated FRET-peptides maintain FRET. A […] method, which calculates the ratio (the Emission Ratio) of donor emission to acceptor emission after excitation of the donor fluorophore at 400 nm, is used to quantitate reaction progress.
# The final 10 μl Kinase Reaction consists of 2.8-25.3 ng PLK1, 2 μM Ser/Thr 16 Peptide substrate and ATP in 50 mM HEPES pH 7.5, 0.01% BRIJ-35, 10 mM MgCl2, 1 mM EGTA. The assay is performed at an ATP concentration at, or close to, the Km. After the 60 minute Kinase Reaction incubation at room temperature, 5 μl of a 1:8 dilution of Development Reagent is added. The assay plate is incubated for a further 60 minutes at room temperature and read on a fluorescence plate reader.
# Duplicate data points are generated from a ⅓ log dilution series of a stock solution of test compound in DMSO. Nine dilutions steps are made from a top concentration of 10 μM, and a “no compound” blank is included. Data is collected and analysed using XLfit software from IDBS. The dose response curve is curve fitted to model number 205 (sigmoidal dose-response model). From the curve generated, the concentration giving 50% inhibition is determined and reported.
# HCT 116 cell line = assay: Cell inhibition assay (WST-1 proliferation); format: cell-based; settings: Homo sapiens, 120 hrs incubation, read-out: Inhibitor Activity vs HCT 116 cell line
# Protocol: Cells were seeded in 96W tissue culture plates (1 well=30 mm^2) at a density of 500 cells per well in 50 μl of the appropriate culture medium (see below). 24 hrs later 50 μl of the compound prepared in the same medium was added as 4 fold dilutions to give final concentrations in the range 0.15 nM-2500 nM (n=6 for each concentration). The plates were then incubated at 37° C., 5% CO2 for 120 hrs. Cell proliferation was assessed using WST-1 (a metabolic indicator dye, Roche Cat no. 1 644 807) according to the manufacturers instructions. The results were calculated as percentage of vehicle response and IC50 values represent the concentration of compound that inhibited the vehicle response by 50%.
# HCT-116 Culture Medium—Dulbeccos MEM (Sigma D6546) plus 10% heat inactivated fetal calf serum (Hyclone SH30071 Thermo Fischer Scientific) containing 2 mM Glutamine (Sigma cat no G-7513) and 50 U/ml Penicillin and Streptomycin Sulphate (Sigma Cat no P-0781).
Structure (SMILES),pIC50 (PLK1),pIC50 (HCT 116 cell line)
"CC[C@@H]1C(=O)N(C)c2cnc(Nc3ccc(C(=O)NC4CCN(CCCCC(=O)N[C@@H](CC(C)C)C(=O)O)CC4)cc3OC)nc2N1C1CCCC1 [Example 23, N-(5-[4-[(4-{[(7R)-8-Cyclopentyl-7-ethyl-5-methyl-6-oxo-5,6,7,8-tetrahydropteridin-2-yl]amino}-3-methoxybenzoyl)amino]piperidin-1-yl]pentanoyl)-L-leucine]",> 7.00,
"CC[C@@H]1C(=O)N(C)c2cnc(Nc3ccc(C(=O)NC4CCN(CCCC(=O)N[C@@H](C(=O)O)c5ccccc5)CC4)cc3OC)nc2N1C1CCCC1 [Example 21, (2R)-[(4-{4-[(4-{[(7R)-8-Cyclopentyl-7-ethyl-5-methyl-6-oxo-5,6,7,8-tetrahydropteridin-2-yl]amino}-3-methoxybenzoyl)amino]piperidin-1-yl}butanoyl)amino](phenyl)acetic acid]",> 7.00,
"CC[C@@H]1C(=O)N(C)c2cnc(Nc3ccc(CCCCCC(=O)N[C@@H](CC(C)C)C(=O)O)cc3F)nc2N1C1CCCC1 [Example 29, N-[6-(4-{[(7R)-8-Cyclopentyl-7-ethyl-5-methyl-6-oxo-5,6,7,8-tetrahydropteridin-2-yl]amino}-3-fluorophenyl)hexanoyl]-L-leucine]",> 7.00,
"CC[C@@H]1C(=O)N(C)c2cnc(Nc3ccc(C(=O)NC4CCN(CCCC(=O)N[C@H](C(=O)O)c5ccccc5)CC4)cc3OC)nc2N1C1CCCC1 [Example 20, (2S)-[(4-{4-[(4-{[(7R)-8-Cyclopentyl-7-ethyl-5-methyl-6-oxo-5,6,7,8-tetrahydropteridin-2-yl]amino}-3-methoxybenzoyl)amino]piperidin-1-yl}butanoyl)amino](phenyl)acetic acid]",> 7.00,
"CC[C@@H]1C(=O)N(C)c2cnc(Nc3ccc(C(=O)NC4CCN(CCNC(=O)N[C@H](C(=O)O)C5CCCCC5)CC4)cc3OC)nc2N1C1CCCC1 [Example 25, (2S)-Cyclohexyl{[(2-{4-[(4-{[(7R)-8-cyclopentyl-7-ethyl-5-methyl-6-oxo-5,6,7,8-tetrahydropteridin-2-yl]amino}-3-methoxybenzoyl)amino]piperidin-1-yl}ethyl)carbamoyl]amino}acetic acid]",> 7.00,
"CC[C@@H]1C(=O)N(C)c2cnc(Nc3ccc(C(=O)N[C@H]4CC[C@@H](CCC(=O)N[C@@H](CC(C)C)C(=O)OC5CCCC5)CC4)cc3OC)nc2N1C1CCCC1 [Example 17, Cyclopentyl N-(3-{cis-4-[(4-{[(7R)-8-cyclopentyl-7-ethyl-5-methyl-6-oxo-5,6,7,8-tetrahydropteridin-2-yl]amino}-3-methoxybenzoyl)amino]cyclohexyl}propanoyl)-L-leucinate]",> 7.00,> 7.00
"CC[C@@H]1C(=O)N(C)c2cnc(Nc3ccc(CCCCCC(=O)N[C@@H](CC(C)C)C(=O)OC4CCCC4)cc3F)nc2N1C1CCCC1 [Example 15, Cyclopentyl N-[6-(4-{[(7R)-8-cyclopentyl-7-ethyl-5-methyl-6-oxo-5,6,7,8-tetrahydropteridin-2-yl]amino}-3-fluorophenyl)hexanoyl]-L-leucinate]",< 6.30,< 6.30
"CC[C@@H]1C(=O)N(C)c2cnc(Nc3ccc(C(=O)NC4CCN(CCCC(=O)N[C@H](C(=O)OC5CCCC5)c5ccccc5)CC4)cc3OC)nc2N1C1CCCC1 [Example 3, Cyclopentyl (2S)-[(4-{4-[(4-{[(7R)-8-cyclopentyl-7-ethyl-5-methyl-6-oxo-5,6,7,8-tetrahydropteridin-2-yl]amino}-3-methoxybenzoyl)amino]piperidin-1-yl}butanoyl)amino](Phenyl)acetate]",> 7.00,> 7.00
"CC[C@@H]1C(=O)N(C)c2cnc(Nc3ccc(C(=O)NC4CCN(CCCC(=O)N[C@@H](CC(C)C)C(=O)O)CC4)cc3OC)nc2N1C1CCCC1 [Example 18, N-(4-{4-[(4-{[(7R)-8-Cyclopentyl-7-ethyl-5-methyl-6-oxo-5,6,7,8-tetrahydropteridin-2-yl]amino}-3-methoxybenzoyl)amino]piperidin-1-yl}butanoyl)-L-leucine]",> 7.00,
"CC[C@@H]1C(=O)N(C)c2cnc(Nc3ccc(C(=O)N[C@H]4CC[C@@H](CCC(=O)N[C@@H](CC(C)C)C(=O)O)CC4)cc3OC)nc2N1C1CCCC1 [Example 31, N-(3-{cis-4-[(4-{[(7R)-8-Cyclopentyl-7-ethyl-5-methyl-6-oxo-5,6,7,8-tetrahydropteridin-2-yl]amino}-3-methoxybenzoyl)amino]cyclohexyl}propanoyl)-L-leucine]",> 7.00,
"CC[C@@H]1C(=O)N(C)c2cnc(Nc3ccc(C(=O)NC4CCN(CC(=O)N[C@@H](CC(C)C)C(=O)O)CC4)cc3OC)nc2N1C1CCCC1 [Example 24, N-({4-[(4-{[(7R)-8-Cyclopentyl-7-ethyl-5-methyl-6-oxo-5,6,7,8-tetrahydropteridin-2-yl]amino}-3-methoxybenzoyl)amino]piperidin-1-yl}acetyl)-L-leucine]",> 7.00,
"CC[C@@H]1C(=O)N(C)c2cnc(Nc3ccc(C(=O)NC4CCN(CCCC(=O)N[C@H](CC(C)C)C(=O)O)CC4)cc3OC)nc2N1C1CCCC1 [Example 19, N-(4-{4-[(4-{[(7R)-8-Cyclopentyl-7-ethyl-5-methyl-6-oxo-5,6,7,8-tetrahydropteridin-2-yl]amino}-3-methoxybenzoyl)amino]Piperidin-1-yl}butanoyl)-D-leucine]",> 7.00,
"CC[C@@H]1C(=O)N(C)c2cnc(Nc3ccc(/C=C/CCCC(=O)N[C@@H](CC(C)C)C(=O)O)cc3F)nc2N1C1CCCC1 [Example 28, N-[(5E)-6-(4-{[(7R)-8-Cyclopentyl-7-ethyl-5-methyl-6-oxo-5,6,7,8-tetrahydropteridin-2-yl]amino}-3-fluorophenyl)hex-5-enoyl]-L-leucine]",> 7.00,
"CC[C@@H]1C(=O)N(C)c2cnc(Nc3ccc(C(=O)NCCCC(=O)N[C@@H](CC(C)C)C(=O)O)cc3OC)nc2N1C1CCCC1 [Example 27, N-{4-[(4-{[(7R)-8-Cyclopentyl-7-ethyl-5-methyl-6-oxo-5,6,7,8-tetrahydropteridin-2-yl]amino}-3-methoxybenzoyl)amino]butanoyl}-L-leucine]",> 7.00,
"CC[C@@H]1C(=O)N(C)c2cnc(Nc3ccc(C(=O)Nc4ccc(CCCC(=O)N[C@@H](CC(C)C)C(=O)O)cc4)cc3OC)nc2N1C1CCCC1 [Example 26, N-(4-{4-[(4-{[(7R)-8-Cyclopentyl-7-ethyl-5-methyl-6-oxo-5,6,7,8-tetrahydropteridin-2-yl]amino}-3-methoxybenzoyl)amino]phenyl}butanoyl)-L-leucine]",> 7.00,
"CC[C@@H]1C(=O)N(C)c2cnc(Nc3ccc(C(=O)NC4CCN(CCCC(=O)N[C@@H](C(=O)O)C5CCCCC5)CC4)cc3OC)nc2N1C1CCCC1 [Example 22, (2R)-Cyclohexyl[(4-{4-[(4-{[(7R)-8-cyclopentyl-7-ethyl-5-methyl-6-oxo-5,6,78-tetrahydropteridin-2-yl]amino}-3-methoxybenzoyl)amino]piperidin-1-yl}butanoyl)amino]acetic acid]",> 7.00,
"CC[C@@H]1C(=O)N(C)c2cnc(Nc3c(F)cc(/C=C/CCCC(=O)N[C@@H](CC(C)C)C(=O)O)cc3F)nc2N1C1CCCC1 [Example 30, N-[(5E)-6-(4-{[(7R)-8-Cyclopentyl-7-ethyl-5-methyl-6-oxo-5,6,7,8-tetrahydropteridin-2-yl]amino}-3,5-difluorophenyl)hex-5-enoyl]-L-leucine]",> 7.00,
